Assay results from PubChem BioAssay (NCI).
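Following 48 hours of exposure in 96-well plates, responses at five concentrations were used to interpolate endpoints linearly. Abbreviation: GI50, concentration required for 50% inhibition of growth. The concentration for full growth arrest is given as TGI.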

Assays:
Assay in all cases: growth of human tumour cells (NCI), 48 h
BT-549 breast = tested on: BT-549 breast
NCI/ADR-RES ovarian = tested on: NCI/ADR-RES ovarian
ACHN renal = tested on: ACHN renal
786-0 renal = tested on: 786-0 renal
DU-145 prostate = tested on: DU-145 prostate
UACC-62 melanoma = tested on: UACC-62 melanoma
PC-3 prostate = tested on: PC-3 prostate
MALME-3M melanoma = tested on: MALME-3M melanoma
RXF 393 renal = tested on: RXF 393 renal
UACC-257 melanoma = tested on: UACC-257 melanoma
SF-295 CNS = tested on: SF-295 CNS
NCI-H522 lung = tested on: NCI-H522 lung
RPMI-8226 leukemia = tested on: RPMI-8226 leukemia
NCI-H460 lung = tested on: NCI-H460 lung
SN12C renal = tested on: SN12C renal
HCT-116 colon = tested on: HCT-116 colon
MDA-MB-435 = tested on: MDA-MB-435
MOLT-4 leukemia = tested on: MOLT-4 leukemia
KM12 colon = tested on: KM12 colon
A549 NSCLC = tested on: A549 NSCLC
IGROV1 ovarian = tested on: IGROV1 ovarian
A498 renal = tested on: A498 renal
TK-10 renal = tested on: TK-10 renal
HOP-62 NSCLC = tested on: HOP-62 NSCLC
COLO 205 colon = tested on: COLO 205 colon
OVCAR-3 ovarian = tested on: OVCAR-3 ovarian
HL-60(TB) leukemia = tested on: HL-60(TB) leukemia

O=C(Cc1ccc(OCc2ccccc2)cc1)NCc1ccc2c(c1)OCO2
GI50 (BT-549 breast): > 100 µM | TGI (BT-549 breast): > 100 µM | GI50 (NCI/ADR-RES ovarian): 9.26 µM | TGI (NCI/ADR-RES ovarian): > 100 µM | GI50 (ACHN renal): > 100 µM | TGI (ACHN renal): > 100 µM | GI50 (786-0 renal): 30.3 µM | TGI (786-0 renal): > 100 µM | GI50 (DU-145 prostate): > 100 µM | TGI (DU-145 prostate): > 100 µM | GI50 (UACC-62 melanoma): 14.3 µM | TGI (UACC-62 melanoma): > 100 µM | GI50 (PC-3 prostate): > 100 µM | TGI (PC-3 prostate): > 100 µM | GI50 (MALME-3M melanoma): 29.2 µM | TGI (MALME-3M melanoma): > 100 µM | GI50 (RXF 393 renal): 5.18 µM | TGI (RXF 393 renal): > 100 µM | GI50 (UACC-257 melanoma): > 100 µM | TGI (UACC-257 melanoma): > 100 µM | GI50 (SF-295 CNS): 64.4 µM | TGI (SF-295 CNS): > 100 µM | GI50 (NCI-H522 lung): > 100 µM | TGI (NCI-H522 lung): > 100 µM | GI50 (RPMI-8226 leukemia): > 100 µM | TGI (RPMI-8226 leukemia): > 100 µM | GI50 (NCI-H460 lung): > 100 µM | TGI (NCI-H460 lung): > 100 µM | GI50 (SN12C renal): > 100 µM | TGI (SN12C renal): > 100 µM | GI50 (HCT-116 colon): 30.1 µM | TGI (HCT-116 colon): > 100 µM | GI50 (MDA-MB-435): 2.32 µM | TGI (MDA-MB-435): 5.93 µM | GI50 (MOLT-4 leukemia): > 100 µM | TGI (MOLT-4 leukemia): > 100 µM | GI50 (KM12 colon): 10.8 µM | TGI (KM12 colon): > 100 µM | GI50 (A549 NSCLC): > 100 µM | TGI (A549 NSCLC): > 100 µM | GI50 (IGROV1 ovarian): > 100 µM | TGI (IGROV1 ovarian): > 100 µM | GI50 (A498 renal): > 100 µM | TGI (A498 renal): > 100 µM | GI50 (TK-10 renal): > 100 µM | TGI (TK-10 renal): > 100 µM | GI50 (HOP-62 NSCLC): 6.98 µM | TGI (HOP-62 NSCLC): > 100 µM | GI50 (COLO 205 colon): 14.4 µM | TGI (COLO 205 colon): > 100 µM | GI50 (OVCAR-3 ovarian): > 100 µM | TGI (OVCAR-3 ovarian): > 100 µM | GI50 (HL-60(TB) leukemia): 9.3 µM
